Columns and labels:
Raf-1 (c-Raf) = target: T1, Raf-1 (c-Raf) (Homo sapiens, UniProt P04049); test: Raf1 kinase cascade assay procedure; assay type: biochemical
T1 construct: Sf9 insect cell lysate containing full length 6his-tagged recombinant human c-Raf; host or cells: c-Raf: Sf9 insect cell lysate; MEK1 and MAPK: E. coli
Protocol: (Specific Activity: ~200U/ml). Human Non-active Mek-1-GST and human GST-MAP kinase (recombinant proteins produced in E. coli).
• 1. Assay Dilution Buffer (ADB): 20mM MOPS, pH 7.2, 25mM β-glycerol phosphate, 5mM EGTA, 1mM sodium orthovanadate, 1mM dithiothreitol. • 2. Magnesium/ATP Cocktail: 500µM cold ATP and 75 mM magnesium chloride in ADB. • 4. Active Kinase: Human Active c-Raf: Use at 0.4U per assay point • 5. Non-active GST-MEK1: Use at 0.1µg per assay point. • 6. Non-active GST-p42 MAP Kinase: Use at 1.0 µg per assay point
• 1. TBST - Tris (50 mM, pH 7.5), NaCl (150 mM), Tween-20 (0.05 %) • 2. Superblock (Pierce) • 3. Anti-GST Ab (Pharmacia) • 4. Anti-Phospho MAPK (Sigma) • 5. Anti-Mouse Ab / Europium conjugate (Wallac)
First Stage: c-Raf Dependent Activation of GST-MEK and GST-MAPK • 1. Add […] of ADB per assay (i.e. per well of a 96 well plate) • 2. Add 10 ml of 0.5 mM cold ATP and 75 mM magnesium chloride in ADB. • 3. Add 2 ml of c-Raf (0.4U/assay), in conjunction with 1.6ml non-active MEK1 ([…]). • 4. Add 4 ml of non-active GST-p42 MAP Kinase (1.0 mg/assay). • 5. Incubate for 60 minutes at 30°C in a shaking incubator. • 6. Transfer this mixture to an anti-GST Ab coated 96 well plate (Nunc Immunosorb plates coated o/n with a-GST, then blocked with Pierce Superblock). • 7. Incubate for 60 minutes at 30°C in a shaking incubator Wash 3X with TBST, add Anti-Phospho MAPK (Sigma) (1:3000) • 6. Incubate for 60 minutes at 30°C in a shaking incubator • 7. Wash 3X with TBST, add Anti-Mouse Ab / Europium conjugate (Wallac) (1:500) • 8. Incubate for 60 minutes at 30°C in a shaking incubator • 9. Wash 3X with TBST, Read plates in Wallac Victor model Plate Reader. • 10. Collect data analyze in Excel for single point and IC50 determinations.
Typically Raf-1 assay is run at compound concentrations from 10 µM to 1 nM in half log dilutions. (% inhibition is determined for each compound concentration).

[1] = system: Human adenocarcinoma cell line LoVo; test: Cell based screen for inhibitors of Raf kinase, quantitative assay; conditions: 96 h, four days incubation
Protocol: (§1) • Cell Lines: Human adenocarcinoma cell line LoVo which is known to be growth inhibited by low nM concentrations of a reference standard inhibitor of Ras and human adenocarcinoma cell line CaCo-2, which is known to be growth resistant to the same reference compound. • Cell Media : RPMI 1640 with 10% Fetal Bovine Serum supplemented with L-glutamine and Pennicilin/Streptomycin. • Compounds: Supplied usually as a 10 mM stock in 100% DMSO. • Normal Saline: 150 mM NaCl • Trichloroacetic Acid (TCA): 50% (w/v) in water • Sulforhodamine B (SRB): 0.4% (w/v) in 1% Acetic Acid • Tris Base: 10 mM in water
(§2) Cells are plated at 2000 cells per well for cell line LoVo and 1500 cells for cell line CaCo-2 in 96 well plates. Cells are plated in media (200 µl) and allowed to adhere overnight at 37°C. At 24 hours post plating, compounds are added directly at a volume of 0.5 µl. For the qualitative screen (compounds screened at 25 µM) compound is added directly to cells. For the quantitative screen, compound is first diluted in DMSO to generate concentrations of compound or reference standard of: 1, 5, 10 and 25 µM. It is advisable to make the dilutions in an identical 96 well plate so that compounds can be added using a multichannel micropipettor set at 0.5 µl. The cells are then incubated for four days after which the media is removed using a 12 well manifold by first tipping the plate forward at a 45 degree angle and then inserting the manifold in an upright orientation to prevent the tips of the manifold from disturbing cells at the bottom of the plate. 200 µl of normal saline is then added to each well using an 8 well multichannel pipettor, followed by the careful addition of 50 µl of 50% TCA. The plates are then incubated for 2 hours at 4°C, after which the supernatant is removed using the same technique as above and the plated washed twice with 200 µl water. The plates are then air dried and 50 µl of SRB stock solution is carefully added so that the entire bottom of each well is covered. This again can be used using an 8 well multichannel pipettor. The SRB is incubated with fixed cells for 15 minutes at room temperature after which the SRB is removed with the manifold as described above and the plates washed twice with 350 µl of 1% acetic acid per well each time. The plates are then air dried after which the bound SRB is released from protein by the addition of 200 µl of Tris base. Resolubilizing the SRB is aided by placing the plates on a rotator for 15-30 minutes. The absorbance of each well is determined at 550 or 562 nm using a microtiter plate reader.
(§3) Each compound or dilution thereof is performed in triplicate. Outliers are identified by visual inspection of the data. Each plate should have a "0" control (vehicle only).
(§4) Quantitative Assay: A standard curve is constructed by plotting the concentration of compound against the average absorbance calculated at that concentration. […] Multiple entries for a given compound indicate that it is tested multiple times.

[2] = system: human adenocarcinoma cell line CaCo-2; test: as above; conditions: Caco-2, 96 h, four days incubation
Protocol: as §1, §2, §3, §4

[3] = target: T2, EGF-R Kinase (recombinant enzyme) (Homo sapiens, UniProt P00533); test: Inhibition of Epidermal Growth Factor Receptor Kinase (EGF-R) using recombinant enzyme; assay type: biochemical; conditions: RR-SRC peptide substrate, (a) = average of two tests
T2 construct: EGFR cDNA encoding amino acids 645 - 1186 preceded by Met-Ala-(His)6; made in house; host or cells: Sf9 insect cells, recombinant baculovirus vHcEGFR52
Protocol: Representative test compounds are evaluated in a standard pharmacological test procedure to measure their ability to inhibit the phosphorylation of the tyrosine residue of a peptide substrate catalyzed by the enzyme epidermal growth factor receptor kinase. […] The enzyme used in this assay is the His-tagged cytoplasmic domain of EGFR. […] Sf9 cells in 100 mm plates are infected at a multiplicity of infection of 10 pfu/cell and cells are harvested 48 h post infection. A cytoplasmic extract is prepared using 1% Triton X-100 and applied to Ni-NTA column. After washing the column with 20 mM imidazole, HcEGFR is eluted with 250 mM imidazole (in 50 mM Na2HPO4, pH 8.0, 300 mM NaCl). Fractions collected are dialyzed against 10 mM HEPES, pH 7.0, 50 mM NaCl, 10% glycerol, 1ug/mL antipain and leupeptin and 0.1 mM Pefabloc SC. The protein is frozen in dry ice/methanol and stored -70°C.
Test compounds are made into 10 mg/mL stock solutions in 100% dimethylsulfoxide (DMSO). Prior to experiment, stock solutions are diluted to 500 uM with 100% DMSO and then serially diluted to the desired concentration with HEPES buffer (30 mM HEPES pH 7.4).
For the enzyme reaction, 10 uL of each inhibitor (at various concentrations) are added to each well of a 96-well plate. To this is added 3 uL of enzyme (1:10 dilution in 10mM HEPES, pH 7.4 for final conc. of 1:120). This is allowed to sit for 10 min on ice and is followed by the addition of 5 ul peptide (80 uM final conc.), 10ul of 4X Buffer containing 50 mM HEPES (pH 7.4), 200 mM Na3VO4, 40mM MnCl2, 80 uM ATP, 0.25 uL ^33P-ATP (>2500 Ci/mmol; Amersham) and 12 uL H2O. The reaction is allowed to run for 90 min at room temperature and is followed by spotting the entire volume onto precut P81 filter papers. The filter discs are washed 2X with 0.5% phosphoric acid and radioactivity is measured using a liquid scintillation counter.
The % inhibition of the test compound is determined for at least three different concentrations and the IC50 value is evaluated from the dose response curve. […] CPM(control) is in units of counts per minute and is a number expressing the amount of radiolabled ATP (γ-^33P) incorporated into the RR-SRC peptide substrate by the enzyme after 90 minutes at room temperature in the absence of test compound as measured by liquid scintillation counting. The CPM values are corrected for the background counts produced by ATP in the absence of the enzymatic reaction.

T2 sequence (P00533 669-1210): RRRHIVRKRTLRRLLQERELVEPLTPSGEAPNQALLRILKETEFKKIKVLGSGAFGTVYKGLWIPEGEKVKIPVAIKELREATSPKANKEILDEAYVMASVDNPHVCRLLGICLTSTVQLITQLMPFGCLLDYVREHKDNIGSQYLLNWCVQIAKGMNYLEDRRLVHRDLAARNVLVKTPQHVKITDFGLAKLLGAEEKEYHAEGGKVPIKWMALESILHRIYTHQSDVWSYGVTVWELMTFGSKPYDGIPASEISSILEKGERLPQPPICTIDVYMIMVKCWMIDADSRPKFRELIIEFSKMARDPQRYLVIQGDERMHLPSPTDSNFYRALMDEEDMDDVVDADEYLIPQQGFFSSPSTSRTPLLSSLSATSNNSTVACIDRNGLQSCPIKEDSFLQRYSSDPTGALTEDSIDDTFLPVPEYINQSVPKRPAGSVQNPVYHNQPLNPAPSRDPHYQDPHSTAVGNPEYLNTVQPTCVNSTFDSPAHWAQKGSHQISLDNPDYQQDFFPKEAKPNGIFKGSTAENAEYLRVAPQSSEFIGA
T1 sequence (P04049 whole entry): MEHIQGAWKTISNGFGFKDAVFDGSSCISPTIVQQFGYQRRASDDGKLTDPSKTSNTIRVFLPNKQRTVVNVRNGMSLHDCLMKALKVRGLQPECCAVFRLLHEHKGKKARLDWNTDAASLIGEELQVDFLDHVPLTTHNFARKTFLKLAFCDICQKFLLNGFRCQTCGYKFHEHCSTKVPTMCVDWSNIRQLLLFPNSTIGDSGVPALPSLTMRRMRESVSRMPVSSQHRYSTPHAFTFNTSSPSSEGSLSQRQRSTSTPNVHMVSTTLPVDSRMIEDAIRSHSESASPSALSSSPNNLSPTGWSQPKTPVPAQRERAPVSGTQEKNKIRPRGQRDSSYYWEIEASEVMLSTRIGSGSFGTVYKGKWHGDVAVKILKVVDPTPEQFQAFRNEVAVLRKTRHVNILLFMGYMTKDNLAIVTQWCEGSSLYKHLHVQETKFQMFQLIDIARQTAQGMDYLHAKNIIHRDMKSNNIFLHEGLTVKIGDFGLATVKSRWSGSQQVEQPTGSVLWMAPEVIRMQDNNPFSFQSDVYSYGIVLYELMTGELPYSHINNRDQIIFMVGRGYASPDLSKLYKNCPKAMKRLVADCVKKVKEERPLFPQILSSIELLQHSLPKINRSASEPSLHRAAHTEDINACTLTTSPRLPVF

Row | IC50 (Raf-1 (c-Raf)) | IC50 [1] | IC50 [2] | Structure (SMILES) | IC50 [3]
1 | 3000 nM | 3500 nM | 10000 nM | COc1cc2cc3c(Nc4ccc(Sc5nccn5C)c(Cl)c4)c(C#N)cnc3nc2cc1OCCN1CCOCC1 [Example 176, 4-{3-Chloro-4-[(1-methyl-1H-imidazol-2-yl)sulfanyl]anilino}-7-methoxy-8-[2-(4-morpholinyl)ethoxy]benzo[b][1,8]naphthyridine-3-carbonitrile] | –
2 | 27 nM | 300 nM | 1400 nM | COc1cc2cc3c(Nc4ccc(Oc5ccccc5)c(Cl)c4)c(C#N)cnc3cc2cc1OCCN1CCOCC1 [Example 213, 4-(3-Chloro-4-phenoxyphenylamino)-7-methoxy-8-(2-morpholin-4-yl-ethoxy)benzo[g]quinoline-3-carbonitrile] | –
3 | 310 nM | 250 nM | 8000 nM | COc1cc2cc3ncc(C#N)c(Nc4ccc(Oc5ccccc5)c(Cl)c4)c3cc2cc1OCCN1CCOCC1 [Example 214, 4-(3-Chloro-4-phenoxyphenylamino)-8-methoxy-7-(2-morpholin-4-yl-ethoxy)benzo[g]quinoline-3-carbonitrile] | –
4 | > 10000 nM | 480 nM | 4800 nM | COc1cc2cc3ncc(C#N)c(Nc4ccc(OCc5ccccc5)c(Cl)c4)c3cc2cc1OCCN1CCOCC1 [Example 217, 4-(4-Benzyloxy-3-chlorophenylamino)-8-methoxy-7-(2-morpholin-4-yl-ethoxy)benzo[g]quinoline-3-carbonitrile] | –

Further lines, the compound ahead of its results:

Row | Structure (SMILES) | IC50 (Raf-1 (c-Raf)) | IC50 [1] | IC50 [2] | IC50 [3]
5 | N#Cc1cnc2c(c1Nc1ccc(Oc3ccccc3)cc1)C=C1N=CN=C1C2 [Example 44, 8-(4-Phenoxyanilino)imidazo[4,5-g]quinoline-7-carbonitrile] | 9 nM | 850 nM | 9200 nM | –
6 | COc1cc(Nc2c(C#N)cnc3cc4cc(OCCN5CCOCC5)c(OC)cc4cc23)c(C)cc1Cl [Example 124, 4-(4-chloro-5-methoxy-2-methylanilino)-7-methoxy-8-[2-(4-morpholinyl)ethoxy]benzo[g]quinoline-3-carbonitrile] | 130 nM | – | – | 3000 nM
7 | COc1cc2cc3c(Nc4ccc(Sc5nccn5C)c(Cl)c4)c(C#N)cnc3nc2cc1OCCCl [Example 174, 8-(2-Chloroethoxy)-4-{3-chloro-4-[(1-methyl-1H-imidazol-2-yl)sulfanyl]anilino}-7-methoxybenzo[b][1,8]naphthyridine-3-carbonitrile] | > 10000 nM | 440 nM | 4000 nM | –
8 | COc1cc2cc3c(Nc4ccc(F)c(Cl)c4)c(C#N)cnc3cc2cc1OCCN1CCOCC1 [Example 205, 4-(3-Chloro-4-fluoroanilino)-7-methoxy-8-[2-(4-morpholinyl)ethoxy]benzo[g]quinoline-3-carbonitrile] | – | – | – | 250 nM
9 | COc1cc(Nc2c(C#N)cnc3cc4cc(OCCN5CCOCC5)c(OC)cc4cc23)c(Cl)cc1C [Example 216, 4-(2-Chloro-5-methoxy-4-methylphenylamino)-7-methoxy-8-(2-morpholin-4-yl-ethoxy)benzo[g]quinoline-3-carbonitrile] | – | – | – | 290 nM

From patent EP1242382B1, “TRICYCLIC PROTEIN KINASE INHIBITORS” (Wyeth, priority 1999, dated 2001)
